# Reference: EP0420121A1, “Antitumor composition” (Senju Pharmaceutical Co., Ltd., priority 1989, dated 1991)
# Values joined by “and” are separate entries in the source; they are usually repeats but may differ in a detail not shown here. Equal entries are not always repeated.
# Tested on: Sarcoma 180 cells
# Test: Pharmacological activity testing in mice with sarcoma 180
# Type: in vivo, ddy strain male mice
# Conditions: 100 mg/kg intraperitoneally once daily for 11 days
# From the text: Pharmacological activity testing in mice with sarcoma 180
# Sarcoma 180 cells (1.16 X 10⁷ cells/animal) were transplanted into groups of 8 ddy strain male mice (5 to 6 weeks of age) subcutaneously at the back on the right side of the body. In one group, the compound S- (α ,β -dicarboxyethyl)glutathione (hereinafter referred to as "DCE-GS" for short) in the forms of a 1.0% (w/v) injectable solution (pH 6.5; isotonized with sodium chloride) was intraperitoneally administered to the animals in a volume corresponding to the dose of 100 mg/kg once daily for 11 days. The control group was intraperitoneally given the same volume of physiological saline once daily for the same period. On day 12, the animals were sacrificed, the tumor was excised from each animal and weighed.
smiles,measurement,setting,value
"N[C@@H](CCC(=O)N[C@@H](CSC(CC(=O)O)C(=O)O)C(=O)NCC(=O)O)C(=O)O (stereo partly drawn) [DCE-GS, S-(α ,β -Dicarboxyethyl)glutathione]",Tumor growth inhibition,"day 12, versus physiological saline group",Tumor growth inhibition = (3.45 - 1.79)/3.45 X 100 = 48.1%
same,Tumor weights (Mean),"sarcoma 180 transplanted subcutaneously, day 12, mean of 8 mice, physiological saline group 3.45± 0.42",1.79 ± 0.14 g
same,Tumor weights (individual animals),"sarcoma 180 transplanted subcutaneously, tumor excised and weighed on day 12, individual No. 1-8, 100 mg/kg",2.48 g and 1.92 g and 2.09 g and 1.47 g and 1.95 g and 1.11 g and 1.62 g and 1.69 g
